{"source": "patent US4464385A", "about": "“Treatment of diabetic complications with hydantoins” (Alcon Laboratories, Inc., priority 1982, dated 1984)", "key": {"cataracts in rats": {"tested_on": "cataracts in rats", "test": "Prevention or retardation of cataracts in galactose-fed rats", "type": "in vivo, rat", "conditions": "for % of Total Eyes, S (snowflake) / Number of Eyes Observed, + (vacuole) / Number of Eyes Observed, - (Normal) / Number of Eyes Observed, N (nuclear cataract) / Number of Eyes Observed, S (snowflake) / Number of Eyes Observed, ± / % of Total Eyes, + (vacuole) / % of Total Eyes, - (Normal) / % of Total Eyes, N (nuclear cataract): 30% galactose diet, A,C,E 0.0025%, B,D 0.01%", "summary_of_the_method": "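Rats given test compound mixed into diet (by % of total feed weight; 0.01% designed to supply 20 mg/kg/day) ad libitum for thirty days after a two-day chow acclimatization, twelve animals per treatment. Eyes examined by handheld ophthalmoscope and/or penlight and each eye graded.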"}, "[1]": {"molecular_target": "T1, aldose reductase enzyme obtained from rat lens (Rattus norvegicus, UniProt P07943)", "T1 construct": "partially purified aldose reductase enzyme obtained from rat lens; from tissue; host or cells: rat lens", "test": "Inhibition of partially purified aldose reductase from rat lens", "type": "biochemical", "conditions": "read-out: IC50 (concentration of drug that inhibits 50% of the enzyme activity)", "excerpt": "In every case the substrate employed was partially purified aldose reductase enzyme obtained from rat lens or human placenta."}}}
{"substance": "dl-spiro-(6-methylthio-chroman-4,4'-imidazolidine)-2',5'-dione", "values": [{"measurement": "% of Total Eyes, S (snowflake)", "setting": "cataracts in rats; Study Day 14", "value": 58.4, "unit": "%"}, {"measurement": "Number of Eyes Observed, + (vacuole)", "setting": "cataracts in rats; Study Day 14", "value": 10, "unit": "eyes"}, {"measurement": "Number of Eyes Observed, - (Normal)", "setting": "cataracts in rats; Study Day 14", "value": 0, "unit": "eyes"}, {"measurement": "Number of Eyes Observed, N (nuclear cataract)", "setting": "cataracts in rats; Study Day 14", "value": 0, "unit": "eyes"}, {"measurement": "Number of Eyes Observed, S (snowflake)", "setting": "cataracts in rats; Study Day 14", "value": 14, "unit": "eyes"}, {"measurement": "Number of Eyes Observed, ±", "setting": "cataracts in rats; Study Day 14", "value": 0, "unit": "eyes"}, {"measurement": "% of Total Eyes, + (vacuole)", "setting": "cataracts in rats; Study Day 16", "value": 37.5, "unit": "%"}, {"measurement": "% of Total Eyes, - (Normal)", "setting": "cataracts in rats; Study Day 16", "value": 0, "unit": "%"}, {"measurement": "% of Total Eyes, N (nuclear cataract)", "setting": "cataracts in rats; Study Day 16", "value": 0, "unit": "%"}, {"measurement": "% of Total Eyes, S (snowflake)", "setting": "cataracts in rats; Study Day 16", "value": 62.5, "unit": "%"}, {"measurement": "Number of Eyes Observed, + (vacuole)", "setting": "cataracts in rats; Study Day 16", "value": 9, "unit": "eyes"}, {"measurement": "Number of Eyes Observed, - (Normal)", "setting": "cataracts in rats; Study Day 16", "value": 0, "unit": "eyes"}, {"measurement": "Number of Eyes Observed, N (nuclear cataract)", "setting": "cataracts in rats; Study Day 16", "value": 0, "unit": "eyes"}, {"measurement": "Number of Eyes Observed, S (snowflake)", "setting": "cataracts in rats; Study Day 16", "value": 15, "unit": "eyes"}, {"measurement": "Number of Eyes Observed, ±", "setting": "cataracts in rats; Study Day 16", "value": 0, "unit": "eyes"}, {"measurement": "% of Total Eyes, + (vacuole)", "setting": "cataracts in rats; Study Day 18", "value": 25.0, "unit": "%"}, {"measurement": "% of Total Eyes, - (Normal)", "setting": "cataracts in rats; Study Day 18", "value": 0, "unit": "%"}, {"measurement": "% of Total Eyes, N (nuclear cataract)", "setting": "cataracts in rats; Study Day 18", "value": 0, "unit": "%"}, {"measurement": "% of Total Eyes, S (snowflake)", "setting": "cataracts in rats; Study Day 18", "value": 75.0, "unit": "%"}, {"measurement": "Number of Eyes Observed, + (vacuole)", "setting": "cataracts in rats; Study Day 18", "value": 6, "unit": "eyes"}, {"measurement": "Number of Eyes Observed, - (Normal)", "setting": "cataracts in rats; Study Day 18", "value": 0, "unit": "eyes"}, {"measurement": "Number of Eyes Observed, N (nuclear cataract)", "setting": "cataracts in rats; Study Day 18", "value": 0, "unit": "eyes"}, {"measurement": "Number of Eyes Observed, S (snowflake)", "setting": "cataracts in rats; Study Day 18", "value": 0, "unit": "eyes"}, {"measurement": "Number of Eyes Observed, ±", "setting": "cataracts in rats; Study Day 18", "value": 0, "unit": "eyes"}, {"measurement": "% of Total Eyes, + (vacuole)", "setting": "cataracts in rats; Study Day 20", "value": 20.8, "unit": "%"}, {"measurement": "% of Total Eyes, - (Normal)", "setting": "cataracts in rats; Study Day 20", "value": 0, "unit": "%"}, {"measurement": "% of Total Eyes, N (nuclear cataract)", "setting": "cataracts in rats; Study Day 20", "value": 0, "unit": "%"}, {"measurement": "% of Total Eyes, S (snowflake)", "setting": "cataracts in rats; Study Day 20", "value": 79.2, "unit": "%"}, {"measurement": "Number of Eyes Observed, + (vacuole)", "setting": "cataracts in rats; Study Day 20", "value": 5, "unit": "eyes"}, {"measurement": "Number of Eyes Observed, - (Normal)", "setting": "cataracts in rats; Study Day 20", "value": 0, "unit": "eyes"}, {"measurement": "Number of Eyes Observed, N (nuclear cataract)", "setting": "cataracts in rats; Study Day 20", "value": 0, "unit": "eyes"}, {"measurement": "Number of Eyes Observed, S (snowflake)", "setting": "cataracts in rats; Study Day 20", "value": 19, "unit": "eyes"}, {"measurement": "Number of Eyes Observed, ±", "setting": "cataracts in rats; Study Day 20", "value": 0, "unit": "eyes"}, {"measurement": "% of Total Eyes, + (vacuole)", "setting": "cataracts in rats; Study Day 22", "value": 8.3, "unit": "%"}, {"measurement": "% of Total Eyes, - (Normal)", "setting": "cataracts in rats; Study Day 22", "value": 0, "unit": "%"}, {"measurement": "% of Total Eyes, N (nuclear cataract)", "setting": "cataracts in rats; Study Day 22", "value": 4.2, "unit": "%"}, {"measurement": "% of Total Eyes, S (snowflake)", "setting": "cataracts in rats; Study Day 22", "value": 87.5, "unit": "%"}, {"measurement": "Number of Eyes Observed, + (vacuole)", "setting": "cataracts in rats; Study Day 22", "value": 2, "unit": "eyes"}, {"measurement": "Number of Eyes Observed, - (Normal)", "setting": "cataracts in rats; Study Day 22", "value": 0, "unit": "eyes"}, {"measurement": "Number of Eyes Observed, N (nuclear cataract)", "setting": "cataracts in rats; Study Day 22", "value": 1, "unit": "eyes"}, {"measurement": "Number of Eyes Observed, S (snowflake)", "setting": "cataracts in rats; Study Day 22", "value": 21, "unit": "eyes"}, {"measurement": "Number of Eyes Observed, ±", "setting": "cataracts in rats; Study Day 22", "value": 0, "unit": "eyes"}, {"measurement": "% of Total Eyes, + (vacuole)", "setting": "cataracts in rats; Study Day 24", "value": 4.2, "unit": "%"}, {"measurement": "% of Total Eyes, - (Normal)", "setting": "cataracts in rats; Study Day 24", "value": 0, "unit": "%"}, {"measurement": "% of Total Eyes, N (nuclear cataract)", "setting": "cataracts in rats; Study Day 24", "value": 4.2, "unit": "%"}, {"measurement": "% of Total Eyes, S (snowflake)", "setting": "cataracts in rats; Study Day 24", "value": 91.7, "unit": "%"}, {"measurement": "Number of Eyes Observed, + (vacuole)", "setting": "cataracts in rats; Study Day 24", "value": 1, "unit": "eyes"}, {"measurement": "Number of Eyes Observed, - (Normal)", "setting": "cataracts in rats; Study Day 24", "value": 0, "unit": "eyes"}, {"measurement": "Number of Eyes Observed, N (nuclear cataract)", "setting": "cataracts in rats; Study Day 24", "value": 1, "unit": "eyes"}, {"measurement": "Number of Eyes Observed, S (snowflake)", "setting": "cataracts in rats; Study Day 24", "value": 22, "unit": "eyes"}, {"measurement": "Number of Eyes Observed, ±", "setting": "cataracts in rats; Study Day 24", "value": 0, "unit": "eyes"}, {"measurement": "% of Total Eyes, + (vacuole)", "setting": "cataracts in rats; Study Day 26", "value": 0, "unit": "%"}, {"measurement": "% of Total Eyes, - (Normal)", "setting": "cataracts in rats; Study Day 26", "value": 0, "unit": "%"}, {"measurement": "% of Total Eyes, N (nuclear cataract)", "setting": "cataracts in rats; Study Day 26", "value": 4.2, "unit": "%"}, {"measurement": "% of Total Eyes, S (snowflake)", "setting": "cataracts in rats; Study Day 26", "value": 95.8, "unit": "%"}, {"measurement": "Number of Eyes Observed, + (vacuole)", "setting": "cataracts in rats; Study Day 26", "value": 0, "unit": "eyes"}, {"measurement": "Number of Eyes Observed, - (Normal)", "setting": "cataracts in rats; Study Day 26", "value": 0, "unit": "eyes"}, {"measurement": "Number of Eyes Observed, N (nuclear cataract)", "setting": "cataracts in rats; Study Day 26", "value": 1, "unit": "eyes"}, {"measurement": "Number of Eyes Observed, S (snowflake)", "setting": "cataracts in rats; Study Day 26", "value": 23, "unit": "eyes"}, {"measurement": "Number of Eyes Observed, ±", "setting": "cataracts in rats; Study Day 26", "value": 0, "unit": "eyes"}, {"measurement": "% of Total Eyes, + (vacuole)", "setting": "cataracts in rats; Study Day 28", "value": 0, "unit": "%"}, {"measurement": "% of Total Eyes, - (Normal)", "setting": "cataracts in rats; Study Day 28", "value": 0, "unit": "%"}, {"measurement": "% of Total Eyes, N (nuclear cataract)", "setting": "cataracts in rats; Study Day 28", "value": 12.5, "unit": "%"}, {"measurement": "% of Total Eyes, S (snowflake)", "setting": "cataracts in rats; Study Day 28", "value": 87.5, "unit": "%"}, {"measurement": "Number of Eyes Observed, + (vacuole)", "setting": "cataracts in rats; Study Day 28", "value": 0, "unit": "eyes"}, {"measurement": "Number of Eyes Observed, - (Normal)", "setting": "cataracts in rats; Study Day 28", "value": 0, "unit": "eyes"}, {"measurement": "Number of Eyes Observed, N (nuclear cataract)", "setting": "cataracts in rats; Study Day 28", "value": 3, "unit": "eyes"}, {"measurement": "Number of Eyes Observed, S (snowflake)", "setting": "cataracts in rats; Study Day 28", "value": 21, "unit": "eyes"}, {"measurement": "Number of Eyes Observed, ±", "setting": "cataracts in rats; Study Day 28", "value": 0, "unit": "eyes"}, {"measurement": "% of Total Eyes, + (vacuole)", "setting": "cataracts in rats; Study Day 30", "value": 0, "unit": "%"}, {"measurement": "% of Total Eyes, - (Normal)", "setting": "cataracts in rats; Study Day 30", "value": 0, "unit": "%"}, {"measurement": "% of Total Eyes, N (nuclear cataract)", "setting": "cataracts in rats; Study Day 30", "value": 16.7, "unit": "%"}, {"measurement": "% of Total Eyes, S (snowflake)", "setting": "cataracts in rats; Study Day 30", "value": 83.3, "unit": "%"}, {"measurement": "Number of Eyes Observed, + (vacuole)", "setting": "cataracts in rats; Study Day 30", "value": 0, "unit": "eyes"}, {"measurement": "Number of Eyes Observed, - (Normal)", "setting": "cataracts in rats; Study Day 30", "value": 0, "unit": "eyes"}, {"measurement": "Number of Eyes Observed, N (nuclear cataract)", "setting": "cataracts in rats; Study Day 30", "value": 4, "unit": "eyes"}, {"measurement": "Number of Eyes Observed, S (snowflake)", "setting": "cataracts in rats; Study Day 30", "value": 20, "unit": "eyes"}, {"measurement": "Number of Eyes Observed, ±", "setting": "cataracts in rats; Study Day 30", "value": 0, "unit": "eyes"}, {"measurement": "inhibitory capacity relative to diastereomeric mixture of 6-sulfinyl derivative", "setting": "cataracts in rats; fold greater", "value": 1.5}, {"measurement": "time to vacuole formation, 0.0025% methylthio versus 0.01% sulfinyl", "setting": "cataracts in rats; methylthio 0.0025%, sulfinyl 0.01% in diet", "value": "not different from each other"}, {"measurement": "IC50", "setting": "[1]", "value": 270, "unit": "nM"}]}
